Measured values taken from patent publication EP4635500A1, “THERAPEUTIC AGENT FOR BACTERIAL INFECTION” (Sumitomo Pharma Co., Ltd., priority 2022, dated 2024).
In brackets after ≈: the same amount, converted by molar mass.

Key:
Assay type in all cases: cell-based
[1] = test system: P. aeruginosa; experiment: MIC, broth microdilution, CDC/FDA Antibiotic Resistance Isolate Bank (Example 7, Tables 10, 15)
[2] = test system: Enterobacterales; experiment: MIC, broth microdilution, CDC/FDA Antibiotic Resistance Isolate Bank (Example 7, Tables 8, 11, 12)
[3] = test system: A. baumannii; experiment: MIC, broth microdilution, 6 strains (Example 6, Table 7)

## O=C(O)c1cn(C2CC2)c2cc(N3CCNCC3)c(F)cc2c1=O [Ciyprofloxacin]
[1]; P. aeruginosa KUB No. 5681, AR Bank # 248
  MIC: 8 µg/mL (≈ 24.1 µM)
[1]; P. aeruginosa KUB No. 5684, AR Bank # 251
  MIC: 4 µg/mL (≈ 12.1 µM)
[1]; P. aeruginosa KUB No. 5685, AR Bank # 252
  MIC: 8 µg/mL (≈ 24.1 µM)
[1]; P. aeruginosa KUB No. 5694, AR Bank # 261
  MIC: 2 µg/mL (≈ 6.04 µM)
[1]; P. aeruginosa KUB No. 5695, AR Bank # 262
  MIC: 0.5 µg/mL (≈ 1.51 µM)
[1]; P. aeruginosa KUB No. 5696, AR Bank # 263
  MIC: 1 µg/mL (≈ 3.02 µM)
[1]; P. aeruginosa KUB No. 5700, AR Bank # 267
  MIC: 8 µg/mL (≈ 24.1 µM)
[1]; P. aeruginosa KUB No. 5701, AR Bank # 268
  MIC: 4 µg/mL (≈ 12.1 µM)
[1]; P. aeruginosa KUB No. 5703, AR Bank # 270
  MIC: 8 µg/mL (≈ 24.1 µM)

## C[C@H]1COc2c(N3CCN(C)CC3)c(F)cc3c(=O)c(C(=O)O)cn1c23 [Levoflexacin]
[2]; Enterobacter aerogenes, KUB No. 5559, AR Bank # 62
  MIC: 2 µg/mL (≈ 5.53 µM)
[2]; Enterobacter aerogenes, KUB No. 5571, AR Bank # 74
  MIC: 0.12 µg/mL (≈ 0.332 µM)
[2]; Enterobacter cloacae, KUB No. 5562, AR Bank # 65
  MIC: 0.12 µg/mL (≈ 0.332 µM)
[2]; Enterobacter cloacae, KUB No. 5569, AR Bank # 72
  MIC: 0.5 µg/mL (≈ 1.38 µM)
[2]; Enterobacter cloacae, KUB No. 5570, AR Bank # 73
  MIC: 0.25 µg/mL (≈ 0.692 µM)
[2]; Enterobacter cloacae, KUB No. 5590, AR Bank # 93
  MIC: 4 µg/mL (≈ 11.1 µM)
[2]; Escherichia coli, KUB No. 5558, AR Bank # 61
  MIC: 0.12 µg/mL (≈ 0.332 µM)
[2]; Escherichia coli, KUB No. 5564, AR Bank # 67
  MIC: 32 µg/mL (≈ 88.6 µM)
[2]; Escherichia coli, KUB No. 5566, AR Bank # 69
  MIC: 0.12 µg/mL (≈ 0.332 µM)
[2]; Escherichia coli, KUB No. 5574, AR Bank # 77
  MIC: 0.06 µg/mL (≈ 0.166 µM)
[2]; Escherichia coli, KUB No. 5578, AR Bank # 81
  MIC: 32 µg/mL (≈ 88.6 µM)
[2]; Escherichia coli, KUB No. 5581, AR Bank # 84
  MIC: 64 µg/mL (≈ 177 µM)
[2]; Escherichia coli, KUB No. 5582, AR Bank # 85
  MIC: 32 µg/mL (≈ 88.6 µM)
[2]; Escherichia coli, KUB No. 5583, AR Bank # 86
  MIC: 8 µg/mL (≈ 22.1 µM)
[2]; Escherichia coli, KUB No. 5586, AR Bank # 89
  MIC: 0.12 µg/mL (≈ 0.332 µM)
[2]; Klebsiella oxytoca, KUB No. 5568, AR Bank # 71
  MIC: 0.5 µg/mL (≈ 1.38 µM)
[2]; Klebsiella ozaenae, KUB No. 5593, AR Bank # 96
  MIC: 32 µg/mL (≈ 88.6 µM)
[2]; Klebsiella pneumoniae, KUB No. 5563, AR Bank # 66
  MIC: 64 µg/mL (≈ 177 µM)
[2]; Klebsiella pneumoniae, KUB No. 5565, AR Bank # 68
  MIC: 64 µg/mL (≈ 177 µM)
[2]; Klebsiella pneumoniae, KUB No. 5572, AR Bank # 75
  MIC: >64 µg/mL
[2]; Klebsiella pneumoniae, KUB No. 5573, AR Bank # 76
  MIC: 1 µg/mL (≈ 2.77 µM)
[2]; Klebsiella pneumoniae, KUB No. 5576, AR Bank # 79
  MIC: 64 µg/mL (≈ 177 µM)
[2]; Klebsiella pneumoniae, KUB No. 5577, AR Bank # 80
  MIC: 0.12 µg/mL (≈ 0.332 µM)
[2]; Klebsiella pneumoniae, KUB No. 5584, AR Bank # 87
  MIC: >64 µg/mL
[2]; Klebsiella pneumoniae, KUB No. 5594, AR Bank # 97
  MIC: >64 µg/mL
[2]; Klebsiella pneumoniae, KUB No. 5595, AR Bank # 98
  MIC: 64 µg/mL (≈ 177 µM)
[2]; Providencia rettgeri, KUB No. 5579, AR Bank # 82
  MIC: 0.25 µg/mL (≈ 0.692 µM)
[2]; Serratia marcescens, KUB No. 5588, AR Bank # 91
  MIC: 0.25 µg/mL (≈ 0.692 µM)

## Colistin sulfate
[3]; A. baumannii strain with AMR gene ADC-25, OXA-23, OXA-66, TEM-ID, Carbapenem-resistant
  MIC: 1 µg/mL
[3]; A. baumannii strain with AMR gene ADC-25, OXA-66, TEM-1D, Carbapenem-susceptible
  MIC: 2 µg/mL
[3]; A. baumannii strain with AMR gene ADC-25, XA-23, OXA-66, strA, strB, sul2, TEM-1D, Carbapenem-resistant
  MIC: 1 µg/mL
[3]; A. baumannii strain with AMR gene NDM-1, OXA-64, Carbapenem-resistant
  MIC: 1 µg/mL
[3]; A. baumannii strain with AMR gene OXA-23, OXA-69, TEM-1D, Carbapenem-resistant
  MIC: 1 µg/mL
[3]; A. baumannii strain with AMR gene OXA-24, OXA-65, Carbapenem-resistant
  MIC: 1 µg/mL
